Active and inactive are the calls of the source. The rule behind the calls is not given here.
Columns and labels:
Assay type in all cases: cell-based
[1] = target: T1, Atypical chemokine receptor 3 (Homo sapiens, UniProt P25106); assay: Displacement of [125I]SDF-1alpha from ACKR3 (unknown origin) expressed in CHO cells at 30 uM after 1 hr by scintillation counting method
[2] = target: C-X-C chemokine receptor type 4 (Homo sapiens, UniProt P61073); assay: Displacement of [125I]SDF-1alpha from CXCR4 (unknown origin) expressed in HEK293 cells after 1 hr by scintillation counting method
[3] = target: T1, Atypical chemokine receptor 3; assay: Displacement of [125I]SDF-1alpha from ACKR3 (unknown origin) expressed in CHO cells after 1 hr by scintillation counting method
[4] = target: T1, Atypical chemokine receptor 3; assay: Activation of YFP-tagged ACKR3 (unknown origin) expressed in HEK293E cells assessed as induction of Rluc-tagged beta-arrestin-2 recruitment after 30 mins by BRET assay
[5] = target: Atypical chemokine receptor 3 (Homo sapiens, UniProt P25106, D179N); assay: Activation of YFP-tagged ACKR3 D179N mutant (unknown origin) expressed in HEK293E cells assessed as induction of Rluc-tagged beta-arrestin-2 recruitment after 30 mins by BRET assay
[6] = target: Atypical chemokine receptor 3 (Homo sapiens, UniProt P25106, S198R); assay: Activation of YFP-tagged ACKR3 S198R mutant (unknown origin) expressed in HEK293E cells assessed as induction of Rluc-tagged beta-arrestin-2 recruitment after 30 mins by BRET assay
[7] = target: Atypical chemokine receptor 3 (Homo sapiens, UniProt P25106, D275N); assay: Activation of YFP-tagged ACKR3 D275N mutant (unknown origin) expressed in HEK293E cells assessed as induction of Rluc-tagged beta-arrestin-2 recruitment after 30 mins by BRET assay
Chain of Atypical chemokine receptor 3 (Homo sapiens, UniProt P25106, D275N) (P25106 whole entry D275N): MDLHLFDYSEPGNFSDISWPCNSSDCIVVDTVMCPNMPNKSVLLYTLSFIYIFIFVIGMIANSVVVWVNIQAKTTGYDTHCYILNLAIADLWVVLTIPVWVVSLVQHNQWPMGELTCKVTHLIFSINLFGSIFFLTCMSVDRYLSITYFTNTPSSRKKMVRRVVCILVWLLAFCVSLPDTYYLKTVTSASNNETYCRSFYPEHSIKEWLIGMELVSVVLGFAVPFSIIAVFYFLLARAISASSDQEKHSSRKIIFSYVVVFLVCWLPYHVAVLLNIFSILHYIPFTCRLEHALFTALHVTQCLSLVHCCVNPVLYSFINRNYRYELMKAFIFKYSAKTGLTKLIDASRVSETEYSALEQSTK

T1 sequence (P25106 whole entry): as the sequence (P25106 whole entry D275N) above, with N275D counted along it
Chain of Atypical chemokine receptor 3 (Homo sapiens, UniProt P25106, D179N) (P25106 whole entry D179N): as the sequence (P25106 whole entry D275N) above, with D179N, N275D counted along it
Chain of Atypical chemokine receptor 3 (Homo sapiens, UniProt P25106, S198R) (P25106 whole entry S198R): as the sequence (P25106 whole entry D275N) above, with S198R, N275D counted along it
Chain of C-X-C chemokine receptor type 4 (P61073 whole entry): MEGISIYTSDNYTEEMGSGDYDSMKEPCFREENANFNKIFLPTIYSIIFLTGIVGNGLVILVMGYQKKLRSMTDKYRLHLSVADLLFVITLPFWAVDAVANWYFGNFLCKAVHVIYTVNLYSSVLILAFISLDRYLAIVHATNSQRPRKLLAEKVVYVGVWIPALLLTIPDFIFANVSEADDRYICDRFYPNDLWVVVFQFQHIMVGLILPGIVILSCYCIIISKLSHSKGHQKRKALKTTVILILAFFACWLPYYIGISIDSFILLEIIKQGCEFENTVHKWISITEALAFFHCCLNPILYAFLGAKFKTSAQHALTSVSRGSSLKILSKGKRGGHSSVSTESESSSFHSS

Row | SMILES | IC50 [2] | IC50 [3] | further results
1 | CN1C(=O)[C@H](CCCNC(=N)N)NC(=O)[C@@H](Cc2ccc(O)cc2)NC(=O)[C@@H]2C[C@@H]3CCCC[C@@H]3N2C(=O)[C@H](Cc2ccc3ccccc3c2)NC(=O)[C@@H]1CCCNC(N)=O | > 30000 nM | 350 nM | –
2 | CN1C(=O)[C@H](CCCNC(N)=O)NC(=O)[C@@H](Cc2ccc(O)cc2)NC(=O)[C@@H]2CCCN2C(=O)[C@H](Cc2ccc3ccccc3c2)NC(=O)[C@@H]1CCCNC(=N)N | > 30000 nM | 3600 nM | –
3 | CN1C(=O)[C@H](CCCNC(=N)N)NC(=O)[C@@H](Cc2ccc(O)cc2)NC(=O)[C@@H]2CCCN2C(=O)[C@H](Cc2ccc3ccccc3c2)NC(=O)[C@@H]1CCCCNC(=N)N | > 30000 nM | 560 nM | –
4 | CC[C@H](C)[C@H]1C(=O)N[C@H](Cc2ccc(O)cc2)C(=O)N[C@@H](CCCNC(=N)N)C(=O)N(C)[C@@H](CCCNC(N)=O)C(=O)N[C@@H](Cc2ccc3ccccc3c2)C(=O)N1C | > 30000 nM | 2200 nM | –
5 | CN1C(=O)[C@H](CCCNC(=N)N)NC(=O)[C@@H](Cc2ccc(O)cc2)NC(=O)[C@H](Cc2ccc(-c3ccccc3)cc2)N(C)C(=O)[C@H](Cc2ccc3ccccc3c2)NC(=O)[C@@H]1CCCNC(N)=O | > 30000 nM | 4000 nM | –
6 | CSCC[C@@H]1NC(=O)[C@@H](Cc2ccc(O)cc2)NC(=O)[C@@H]2CCCN2C(=O)[C@H](Cc2ccc3ccccc3c2)NC(=O)[C@H](CCCNC(=N)N)N(C)C1=O | > 30000 nM | 2000 to 24000 nM | –
7 | CN1C(=O)[C@H](CC(=O)O)NC(=O)[C@@H](Cc2ccc(O)cc2)NC(=O)[C@@H]2CCCN2C(=O)[C@H](Cc2ccc3ccccc3c2)NC(=O)[C@@H]1CCCNC(=N)N | > 30000 nM | – | inhibition [1]: inactive
8 | CN1C(=O)[C@H](CCCNC(=N)N)NC(=O)[C@@H](Cc2ccc(O)cc2)NC(=O)[C@@H]2CCCN2C(=O)[C@H](Cc2ccc3ccccc3c2)NC(=O)[C@@H]1CCC(=O)O | > 30000 nM | – | inhibition [1]: inactive
9 | CN1C(=O)[C@@H](CS)NC(=O)[C@@H](Cc2ccc(O)cc2)NC(=O)[C@@H]2CCCN2C(=O)[C@H](Cc2ccc3ccccc3c2)NC(=O)[C@@H]1CCCNC(=N)N | > 30000 nM | 250 nM | –

Now from value to compound, other results behind:

Row | IC50 [2] | IC50 [3] | SMILES | further results
10 | > 30000 nM | – | CN1C(=O)[C@H](CCCNC(=N)N)NC(=O)[C@@H](Cc2ccc(O)cc2)NC(=O)[C@@H]2CCCN2C(=O)[C@H](Cc2ccc3ccccc3c2)NC(=O)[C@@H]1CC(=O)O | inhibition [1]: inactive
11 | > 30000 nM | – | CN1C(=O)[C@H](CC(N)=O)NC(=O)[C@@H](Cc2ccc(O)cc2)NC(=O)[C@@H]2CCCN2C(=O)[C@H](Cc2ccc3ccccc3c2)NC(=O)[C@@H]1CCCNC(=N)N | inhibition [1]: inactive
12 | > 30000 nM | – | CN1C(=O)[C@H](CCC(=O)O)NC(=O)[C@@H](Cc2ccc(O)cc2)NC(=O)[C@@H]2CCCN2C(=O)[C@H](Cc2ccc3ccccc3c2)NC(=O)[C@@H]1CCCNC(=N)N | inhibition [1]: inactive
13 | 17000 nM | 170 nM | CN1C(=O)[C@H](CCCNC(=N)N)NC(=O)[C@@H](Cc2ccc(O)cc2)NC(=O)[C@H](Cc2cccc3ccccc23)N(C)C(=O)[C@H](Cc2ccc3ccccc3c2)NC(=O)[C@@H]1CCCNC(N)=O | EC50 [4]: 490 nM; EC50 ([5]; read-out: EC50): 110 nM; EC50 ([5]; read-out: pEC50 (converted)): 126 nM; EC50 ([6]; read-out: EC50): 1900 nM; EC50 ([7]; read-out: EC50): 5500 nM; EC50 ([7]; read-out: pEC50 (converted)): 6310 nM
14 | > 30000 nM | 860 nM | CN1C(=O)[C@H](CCCNC(=N)N)NC(=O)[C@@H](Cc2ccc(O)cc2)NC(=O)[C@@H]2CCCN2C(=O)[C@H](Cc2ccc3ccccc3c2)NC(=O)[C@@H]1CCCNC(=N)N | EC50 [4]: 91 nM; EC50 ([5]; read-out: EC50): 2200 nM; EC50 ([5]; read-out: pEC50 (converted)): 2510 nM; EC50 ([6]; read-out: EC50): 270 nM; EC50 ([6]; read-out: pEC50 (converted)): 316 nM; EC50 ([7]; read-out: EC50): 360 nM
15 | > 30000 nM | 1800 nM | CN1C(=O)[C@H](CCCNC(=N)N)NC(=O)[C@@H](Cc2ccc(O)cc2)NC(=O)[C@H](Cc2ccc(O)cc2)N(C)C(=O)[C@H](Cc2ccc3ccccc3c2)NC(=O)[C@@H]1CCCNC(N)=O | –
16 | > 30000 nM | 2100 nM | CN1C(=O)[C@H](CCCNC(=N)N)NC(=O)[C@@H](Cc2ccc(O)cc2)NC(=O)[C@@H]2Cc3[nH]c4ccccc4c3CN2C(=O)[C@H](Cc2ccc3ccccc3c2)NC(=O)[C@@H]1CCCNC(N)=O | –
17 | 21000 nM | 4600 nM | CN1C(=O)[C@H](Cc2ccc3ccccc3c2)NC(=O)[C@H](CCCNC(N)=O)N(C)C(=O)[C@H](CCCNC(=N)N)NC(=O)[C@@H](Cc2ccc(O)cc2)NC(=O)[C@H]1CS | –

From ChEMBL document CHEMBL4043305, “Structure-Activity Relationship Study of Cyclic Pentapeptide Ligands for Atypical Chemokine Receptor 3 (ACKR3)” (J Med Chem, 2018)
